According to patent publication US20230374015A1, “INHIBITORS OF FIBROBLAST GROWTH FACTOR RECEPTOR KINASES” (Kinnate Biopharma Inc., priority 2020, published 2023):
Structures can show the parent of a compound that is named as a salt.

Target: FGFR2 (Homo sapiens, UniProt P21802)
Experiment: FGFR2 Kinase Protocol - Condition 2 (Reaction Biology HotSpot radiometric kinase assay, no preincubation)
Type: biochemical
Conditions: poly[Glu:Tyr] (4:1) 0.2 mg/ml, ATP 100 microM, 2 hr room temperature
Procedure, shortened: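 Radiometric HotSpot format: FGFR2 (wildtype or V564F) with poly[Glu:Tyr] (4:1) at 0.2 mg/ml in HEPES pH 7.5 buffer with 1% DMSO; ATP plus [γ33P]ATP at 100 µM total, added without preincubation. Reactions ran 2 hr at room temperature, then filter-bound. IC50 from 10-dose, 3-fold series versus DMSO control.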

FGFR2, sequence (P21802 22-821): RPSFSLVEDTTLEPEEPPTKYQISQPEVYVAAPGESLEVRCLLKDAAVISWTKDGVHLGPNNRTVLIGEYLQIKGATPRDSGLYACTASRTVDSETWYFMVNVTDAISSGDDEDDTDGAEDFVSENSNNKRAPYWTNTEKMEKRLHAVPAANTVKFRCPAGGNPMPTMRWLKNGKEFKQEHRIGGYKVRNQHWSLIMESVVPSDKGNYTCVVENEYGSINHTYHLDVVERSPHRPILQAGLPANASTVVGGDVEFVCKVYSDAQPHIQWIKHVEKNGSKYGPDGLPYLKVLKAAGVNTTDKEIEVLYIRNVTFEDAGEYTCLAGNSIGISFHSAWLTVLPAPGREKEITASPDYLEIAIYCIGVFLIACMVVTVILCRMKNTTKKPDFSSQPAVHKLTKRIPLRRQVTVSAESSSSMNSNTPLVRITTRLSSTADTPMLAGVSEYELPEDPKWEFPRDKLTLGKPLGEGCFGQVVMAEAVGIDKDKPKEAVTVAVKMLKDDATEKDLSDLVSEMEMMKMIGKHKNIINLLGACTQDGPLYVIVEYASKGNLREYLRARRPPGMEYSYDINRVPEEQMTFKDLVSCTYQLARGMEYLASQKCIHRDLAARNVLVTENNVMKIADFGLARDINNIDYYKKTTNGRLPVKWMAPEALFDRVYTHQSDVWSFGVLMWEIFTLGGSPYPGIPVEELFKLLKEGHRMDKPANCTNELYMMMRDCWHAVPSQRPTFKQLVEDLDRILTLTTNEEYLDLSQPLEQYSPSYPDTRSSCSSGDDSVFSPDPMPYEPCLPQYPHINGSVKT

| IC50 [nM] | Structure (SMILES) |
| --- | --- |
| ≤ 100 | C=CC(=O)N1CC[C@H](n2nc(C#Cc3cc4nc(C)n(C)c4cc3F)c3c(N)ncnc32)C1 [Example 192, 1-[(3S)-3-{4-Amino-3-[2-(6-fluoro-1,2-dimethyl-1,3-benzodiazol-5-yl)ethynyl]pyrazolo[3,4-d]pyrimidin-1-yl}pyrrolidin-1-yl]prop-2-en-1-one] |
| ≤ 100 | C=CC(=O)N1CC[C@H](n2nc(C#Cc3cc4ncn(C)c4cc3F)c3c(N)nccc32)C1 [Example 141, 1-[(3S)-3-{4-Amino-3-[2-(6-fluoro-1-methyl-1,3-benzodiazol-5-yl)ethynyl]pyrazolo[4,3-c]pyridin-1-yl}pyrrolidin-1-yl]prop-2-en-1-one] |
| ≤ 100 | C=CC(=O)N1C[C@@H](n2cc(C#Cc3c(F)cc4c(ncn4CC)c3F)c3c(N)ncnc32)C[C@@H]1COC [Example 87, 1-[(2R,4S)-4-[4-Amino-5-[2-(1-ethyl-4,6-difluoro-1,3-benzodiazol-5-yl)ethynyl]pyrrolo[2,3-d]pyrimidin-7-yl]-2-(methoxymethyl)pyrrolidin-1-yl]prop-2-en-1-one] |
| ≤ 100 | C=CC(=O)N1C[C@@H](n2nc(C#Cc3cc4ncn(C)c4cc3F)c3c(N)nccc32)C[C@@H]1CF [Example 185, 1-[(2R,4S)-4-{4-Amino-3-[2-(6-fluoro-1-methyl-1,3-benzodiazol-5-yl)ethynyl]pyrazolo[4,3-c]pyridin-1-yl}-2-(fluoromethyl)pyrrolidin-1-yl]prop-2-en-1-one] |
| ≤ 100 | C=CC(=O)N1C[C@@H](c2nc(C#Cc3cc4ncn(C5CC5)c4cc3F)c3c(N)nccn23)C[C@@H]1COC [Example 203, 1-[(2R,4S)-4-{8-Amino-1-[2-(1-cyclopropyl-6-fluoro-1,3-benzodiazol-5-yl)ethynyl]imidazo[1,5-a]pyrazin-3-yl}-2-(methoxymethyl)pyrrolidin-1-yl]prop-2-en-1-one] |
| ≤ 100 | C=CC(=O)N1C[C@@H](n2nc(C#Cc3c(F)cc4c(ncn4C)c3F)c3c(N)nccc32)C[C@@H]1COC(F)(F)F [Example 60, 1-[(2R,4S)-4-[4-Amino-3-[2-(4,6-difluoro-1-methyl-1,3-benzodiazol-5-yl)ethynyl]pyrazolo[4,3-c]pyridin-1-yl]-2-[(trifluoromethoxy)methyl]pyrrolidin-1-yl]prop-2-en-1-one] |
| ≤ 100 | C=CC(=O)N1C[C@@H](n2nc(C#Cc3c(Cl)cc4c(ncn4C)c3F)c3c(N)nccc32)C[C@@H]1COC [Example 105, 1-[(2R,4S)-4-[4-Amino-3-[2-(6-chloro-4-fluoro-1-methyl-1,3-benzodiazol-5-yl)ethynyl]pyrazolo[4,3-c]pyridin-1-yl]-2-(methoxymethyl)pyrrolidin-1-yl]prop-2-en-1-one] |
| ≤ 100 | C=CC(=O)N1C[C@@H](n2nc(C#Cc3cc4ncn(C)c4cc3F)c3c(N)nccc32)C[C@@H]1COC(F)(F)F [Example 59, 1-((2R,4S)-4-(4-amino-3-((6-fluoro-1-methyl-1H-benzo[d]imidazol-5-yl)ethynyl)-1H-pyrazolo[4,3-c]pyridin-1-yl)-2-((trifluoromethoxy)methyl)pyrrolidin-1-yl)prop-2-en-1-one formate] |
| ≤ 100 | C=CC(=O)N1C[C@@H](n2nc(C#Cc3cc4ncn(C)c4cc3F)c3c(N)nccc32)C[C@@H]1C [Example 165, 1-((2S,4S)-4-(4-amino-3-((6-fluoro-1-methyl-1H-benzo[d]imidazol-5-yl)ethynyl)-1H-pyrazolo[4,3-c]pyridin-1-yl)-2-methylpyrrolidin-1-yl)prop-2-en-1-one] |
| ≤ 100 | C=CC(=O)N1CC[C@H](n2nc(C#Cc3c(F)cc4c(ncn4C4CC4)c3F)c3c(N)ncnc32)C1 [Example 195, 1-[(3S)-3-{4-Amino-3-[2-(1-cyclopropyl-4,6-difluoro-1,3-benzodiazol-5-yl)ethynyl]pyrazolo[3,4-d]pyrimidin-1-yl}pyrrolidin-1-yl]prop-2-en-1-one] |
